Assay results taken from patent publication US8969378B2, “Inhibitor of the differentiation of T cells into Th1 cells” (Kowa Co., Ltd., priority 2007, dated 2015).

Experiments:
[1] = tested on: human T cells; assay: Differentiation of peripheral blood T cells into Th1 / Th2 cells (IL-12, anti-CD3/CD28, flow cytometry); assay type: cell-based; conditions: FIG. 2; for concentration exhibiting the effect of inhibiting differentiation of T cells into Th1 cells / concentration exhibiting the effect of promoting differentiation of T cells into Th2 cells: human peripheral blood cells, IL-12 100 ng/mL, four days; for concentration exhibiting the effect of inhibiting differentiation of T cells into Th1 cells: CD4-positive IFN-γ-positive cells; for concentration exhibiting the effect of promoting differentiation of T cells into Th2 cells: CD4-positive IL-4-positive cells
Protocol: Peripheral blood (10 mL) was collected from six healthy adults in heparin, and […] were isolated through the Ficol-Hypaque method (i.e., a customary method). The thus-isolated cells were diluted to 1×10^6/mL and then inoculated into a 24-well culture plate coated with CD3 and CD28 antibodies (Falcon), followed by culturing for four days in the presence of IL-12 (100 ng/mL), to thereby induce differentiation of T cells into Th1 cells. Atorvastatin or pitavastatin (0.01 to 10 μM) was added at the time of initiation of culturing, and the effect of each drug on differentiation of T cells into Th1 cells was examined. After completion of culturing, cells were washed thrice with PBS, and cytokines (IFN-γ and IL-4) in the cells and CD4 on the surfaces of the cells were stained in a conventional manner. The ratio of Th1 (CD4-positive, IFN-γ-positive cells) or Th2 (CD4-positive, IL-4-positive cells) to all the CD4-positive T cells was determined through flow cytometry.
Specifically, lymphocytes were stimulated with anti-CD3 antibody and anti-CD28 antibody, and the amounts of INF-γ (Th1 cytokine) and IL-4 (Th2 cytokine) in the cells were determined through flow cytometry, to thereby compare pitavastatin with atorvastatin in terms of the effect of inhibiting differentiation of peripheral blood T cells into Th1 cells, and the effect of promoting differentiation of peripheral blood T cells into Th2 cells.

[2] = tested on: Th1 cells derived from spleen cells of MOG-immunized mice; assay: Inhibition of activation of Th1 cells: IFN-γ production by MOG-stimulated spleen cells of EAE mice (ELISA); assay type: cell-based, C57BL/6 mice; conditions: FIG. 1; for concentration that significantly reduced the amount of IFN-γ produced by Th1 cells (inhibited activation of Th1 cells): spleen cells of MOG-immunized EAE mice, day 14, stimulated with MOG, IFN-γ in supernatant by ELISA
Protocol: Five C57BL/6 mice were immunized with myelin oligodendrocyte glycoprotein (MOG), and mice with experimental autoimmune encephalomyelitis ([…] model of multiple sclerosis) were prepared in a conventional manner. On day 14 after immunization, spleen cells were collected from each mouse and cultured in a 24-well culture plate coated with CD3 and CD28 antibodies, and then stimulated with MOG in the presence of pitavastatin or atorvastatin, to thereby activate Th1 cells. The Th1 cytokine (IFN-γ) concentration of the supernatant of the resultant cell culture was determined through ELISA.

SMILES: CC(C)c1c(C(=O)Nc2ccccc2)c(-c2ccccc2)c(-c2ccc(F)cc2)n1CC[C@@H](O)C[C@@H](O)CC(=O)O [atorvastatin]
- concentration exhibiting the effect of inhibiting differentiation of T cells into Th1 cells [1]: at least 10 μM
- concentration exhibiting the effect of promoting differentiation of T cells into Th2 cells [1]: at least 10 μM
- concentration that significantly reduced the amount of IFN-γ produced by Th1 cells (inhibited activation of Th1 cells) [2]: 25 µM

SMILES: O=C(O)C[C@H](O)C[C@H](O)/C=C/c1c(C2CC2)nc2ccccc2c1-c1ccc(F)cc1 [pitavastatin, (3R,5S,6E)-7-[2-cyclopropyl-4-(4-fluorophenyl)-3-quinolyl]-3,5-dihydroxy-6-heptenoic acid]
- concentration exhibiting the effect of inhibiting differentiation of T cells into Th1 cells [1]: 1 µM
- concentration exhibiting the effect of promoting differentiation of T cells into Th2 cells [1]: 1 µM
- Th1/Th2 ratio improving effect relative to atorvastatin ([1]; versus atorvastatin): 10 fold
- effect of promoting differentiation of T cells into Th2 cells relative to atorvastatin ([1]; versus atorvastatin): 10 fold
- concentration that significantly reduced the amount of IFN-γ produced by Th1 cells (inhibited activation of Th1 cells) [2]: ≥ 10 µM
- effect of inhibiting activation of Th1 cells relative to atorvastatin ([2]; versus atorvastatin, from amount of IFN-γ produced): 2.5 fold
